test system: CHRC5 cell line; test: Compound was tested for its cytotoxic effect on CHRC5 Chinese hamster cells at a dose of 1 uM; not cytotoxic; assay type: functional, cell-based; conditions: Cricetulus griseus

| SMILES | Activity |
| --- | --- |
| OC(COc1cccc2ncccc12)CN1CCN(C2c3ccccc3C3C(c4ccccc42)C3(F)F)CC1 (stereo in doubt; form 1) [listing 1 of 2 here] | Non-toxic |
| OC(COc1cccc2ncccc12)CN1CCN(C2c3ccccc3C3C(c4ccccc42)C3(F)F)CC1 (stereo in doubt; form 2) [listing 1 of 2 here] | Non-toxic |
| OC(COc1cccc2ncccc12)CN1CCN(C2c3ccccc3C3C(c4ccccc42)C3(F)F)CC1 (stereo in doubt; form 5) [listing 1 of 2 here] | Non-toxic |

test system: CHRC5 cell line; test: Tested for in vitro proliferation and viability of multidrug resistant CHRC5 Chinese hamster cells in the presence and absence of doxorubicin in a modified MTT assay; assay type: functional, cell-based, Cricetulus griseus; conditions: Cricetulus griseus, CHRC5

| SMILES | EC50 |
| --- | --- |
| OC(COc1cccc2ncccc12)CN1CCN(C2c3ccccc3CCc3ccccc32)CC1 (stereo not drawn) | 65 nM |
| COc1ccc(CCN(C)CCCC(C#N)(c2ccc(OC)c(OC)c2)C(C)C)cc1OC (stereo not drawn) | 1200 nM |
| OC(COc1cccc2ncccc12)CN1CCN(C2c3ccccc3C3CC3c3ccccc32)CC1 (stereo not drawn) | 40 nM |
| OC(COc1cccc2ncccc12)CN1CCN(C2c3ccccc3C3C(c4ccccc42)C3(Cl)Cl)CC1 (stereo in doubt; form 1) | 100 nM |

same assay, conditions: chrc5

| SMILES | EC50 |
| --- | --- |
| OC(COc1cccc2ncccc12)CN1CCN(C2c3ccccc3C3C(c4ccccc42)C3(Cl)Cl)CC1 (racemic) | 70 nM |
| OC(COc1cccc2ncccc12)CN1CCN(C2c3ccccc3C3C(c4ccccc42)C3(F)F)CC1 (single isomer, unassigned) | 190 nM |
| OC(COc1cccc2ncccc12)CN1CCN(C2c3ccccc3C3C(c4ccccc42)C3(F)F)CC1 (stereo in doubt; form 1) [listing 2 of 2 here] | 50 nM |
| OC(COc1cccc2ncccc12)CN1CCN(C2c3ccccc3C3C(c4ccccc42)C3(Cl)Cl)CC1 (stereo in doubt; form 2) | 55 nM |
| OC(COc1cccc2ncccc12)CN1CCN(C2c3ccccc3C3C(c4ccccc42)C3(F)F)CC1 (stereo in doubt; form 2) [listing 2 of 2 here] | 60 nM |
| OC(COc1cccc2ncccc12)CN1CCN(C2c3ccccc3C3C(c4ccccc42)C3(F)F)CC1 (stereo in doubt; form 3) | 180 nM |
| OC(COc1cccc2ncccc12)CN1CCN(C2c3ccccc3C3C(c4ccccc42)C3(F)F)CC1 (stereo in doubt; form 4) | 200 nM |
| OC(COc1cccc2ncccc12)CN1CCN(C2c3ccccc3C3C(c4ccccc42)C3(F)F)CC1 (stereo in doubt; form 5) [listing 2 of 2 here] | 20.7 nM |

molecular target: not listed separately; test: Binding affinity to glycoprotein p was tested; conditions: not given

| IC50 | SMILES |
| --- | --- |
| 40 nM | OC(COc1cccc2ncccc12)CN1CCN(C2c3ccccc3C3C(c4ccccc42)C3(F)F)CC1 (stereo in doubt; form 5) [listing 2 of 2 here] |

test system: not listed separately; test: Half-life at pH 2.0 and 37 degree C; assay type: ADME; conditions: buffer

| half-life | SMILES |
| --- | --- |
| > 72 h | OC(COc1cccc2ncccc12)CN1CCN(C2c3ccccc3C3C(c4ccccc42)C3(Cl)Cl)CC1 (stereo in doubt; form 1) |
| > 72 h | OC(COc1cccc2ncccc12)CN1CCN(C2c3ccccc3C3C(c4ccccc42)C3(F)F)CC1 (stereo in doubt; form 1) [listing 2 of 2 here] |

From ChEMBL document CHEMBL1128056, “Methanodibenzosuberylpiperazines as potent multidrug resistance reversal agents” (Bioorg Med Chem Lett, 1995)
